Test results reported in patent publication US20130039905A1 (Neurotec Pharma, S.L., priority 2010, published 2013).
“Also recorded” adds a separate entry of the source.

What was measured:
[1] = Glycemia in mice receiving daily oral diazoxide (Example 1); assay type: in vivo; details: 30 days, female C57BL/6J mice, blood glucose at time 0 and 60 minutes
Experimental: Female C57BL/6J mice, 11 weeks of age, were purchased from Charles River and maintained on a 12:12 hr light:dark cycle, with standard chow and water freely available. The experiments began at 11:00 h. […] From day 4 on, glucose blood levels were measured every 3-4 days during the 30-day treatment period. Measurements were performed immediately before drug administration (time 0) and at 60 minutes. Blood samples were obtained from the saphenous vein and glucose levels were determined using a glucometer and glucose test strips (Accu-Chek® Aviva, Roche Diagnostics, Indianapolis, Ind, USA). For each group, hyperglycemia was considered when glucose concentration was equal or higher than 176 mg/dl.

EAE mice [2] = assay: EAE in mice, treatment starting at immunization (pre-treatment, Example 2); assay type: in vivo; details: for global mean decrease of the clinical score (Area Under the Curve vs placebo): pre-treatment
EAE mice [3] = assay: EAE in mice, treatment after first clinical signs (post-treatment, Example 3); assay type: in vivo; details: for global mean decrease of the clinical score (Area Under the Curve vs placebo): post-treatment
Experimental: Experimental Autoimmune Encephalomyelitis induction and clinic scoring of mice were performed as described on Example 2.
The day scoring a value of 1, every mouse was randomly assigned to a diazoxide-treatment or placebo-control group. The period of treatment was 15 days and the drug was dissolved in a vehicle consisting in 98.5% water plus 1.5% of dimetyl sulfoxide (Sigma-Aldrich, St. Louis, Mo., USA) and was administered daily orally by gavage (p.o.), in a dose volume of 200 μl. […] One placebo-control group received a daily oral administration of vehicle.
The non-parametric Mann-Whitney-Wilcoxon test was performed to establish the differences between the treated groups and control group for each day. p<0.05 was considered as significant. To test the global effect of the treatment along all the study, the Area Under the Curve of treated groups and control group was compared using One-Way-Anova test. p<0.05 was considered as significant.

[4] = system: bupivacaine-induced actute CNS toxicity; details: 100 mg/kg (300 mg/m^2), mice; cited from earlier work

CC1=NS(=O)(=O)c2cc(Cl)ccc2N1 [Diazoxide]
hyperglycemia (glucose concentration equal or higher than 176 mg/dl) ([1]; 0.05 mg/kg (0,15 mg/m^2) daily p.o.): none of the two doses tested in this study produced hyperglycemia
hyperglycemia (glucose concentration equal or higher than 176 mg/dl) ([1]; 1 mg/kg (3 mg/m^2) daily p.o.): none of the two doses tested in this study produced hyperglycemia
global mean decrease of the clinical score (Area Under the Curve vs placebo) (EAE mice [2]; 0,8 mg/Kg (2.4 mg/m^2) daily p.o., p<0,01): 26%
daily EAE clinical score compared to control group (EAE mice [2]; 0.025 mg/kg (0.075 mg/m^2) daily p.o. for 30 days from immunization): significant difference at days fourteen, fifteen, eighteen and nineteen
daily EAE clinical score compared to placebo control group (EAE mice [2]; 0.8 mg/kg (2.4 mg/m^2) daily p.o. for 30 days from immunization): significantly lower at day thirteen and from day twenty-five to thirty; also recorded: significant in seven non-consecutive days
global mean decrease of the clinical score (Area Under the Curve vs placebo) (EAE mice [2]; 0,025 mg/Kg (0.075 mg/m^2) daily p.o., p<0.05): 26%
mean value for clinical score compared to control group after day 13 post-immunization (EAE mice [2]; all dosages tested (0.025 and 0.8 mg/kg) daily p.o. from immunization): better mean value for clinical score
daily EAE clinical score compared to control group (EAE mice [3]; 0.05 mg/kg (0.15 mg/m^2) daily p.o. for 15 days from score 1): significant difference at the final phase of the study (day 15)
global mean decrease of the clinical score (Area Under the Curve vs placebo) (EAE mice [3]; 0.05 mg/kg (0.15 mg/m^2) daily p.o.): 19%
daily EAE clinical score compared to placebo-control group (EAE mice [3]; 0.8 mg/kg (2.4 mg/m^2) daily p.o. for 15 days from score 1, day six to day fifteen): all clinical values were significantly lower; also recorded: significant reduction of the daily clinical score in ten consecutive days
global mean decrease of the clinical score (Area Under the Curve vs placebo) (EAE mice [3]; 1 mg/kg (3 mg/m^2) daily p.o., p<0.05): 40%
daily EAE clinical score compared to control group (EAE mice [3]; 4 mg/kg (12 mg/m^2) daily p.o. for 15 days from score 1): significant reduction in the clinical score at day four and at day five
global mean decrease of the clinical score (Area Under the Curve vs placebo) (EAE mice [3]; 4 mg/kg (12 mg/m^2) daily p.o.): 15%
morbidity and mean daily clinical score compared to placebo-control group (EAE mice [3]; 0.05, 0.8 and 1 mg/kg daily p.o. for 15 days from score 1): significant reduction of morbidity and of the mean daily clinical score
daily EAE clinical score compared to placebo-control group (EAE mice [3]; 1 lmg/kg (3 mg/m^2) daily p.o. for 15 days from score 1, day four to day fifteen): significantly lower from day four
period of latency of the convulsions caused by bupivacaine [4]: increasing the period of latency of the convulsions
